Assay results taken from publication PMC4931847, “Preclinical validation of a novel compound targeting p70S6 kinase in breast cancer” (Aging (Albany NY), 2016).

Columns and labels:
advanced solid tumors = system: advanced solid tumors; parameters: method as in PMID 24456794, PMID 24440085; details: cited from earlier work
MDA-MB-231 cells = assay: Soft agar anchorage-independent growth assay; assay type: cell-based, human; details: MDA-MB-231, soft agar, 3% WF, 10 or 20μM, three weeks
Description: Vinculin was used as loading control. (B) Same as in (A) but the analysis was focused on STAT3 and Src signaling pathways. Actin was used as loading control. […] Two weeks later plates were stained with crystal violet and colonies photographed (C) and counted (D). […] After three weeks, colonies were photographed (E) and counted (F). Values reported in (D) and (F) represent the mean (± S.D.) of two independent experiments performed in duplicate. * p<0.05; ** p<0.01; *** p<0.001.
Both number and size of the colonies were affected, signifying that, in this context, activity of p70S6K was necessary for both survival and proliferation of breast cancer cells (Fig. 2E and F).
The experiments were performed in six-well tissue culture plates, in triplicate. Fresh medium was added to the wells twice a week as a feeder layer. After three weeks, the number of colonies was counted at 4X magnification.

[1] = system: breast cancer local relapse; parameters: method as in PMID 23899505, PMID 24661902, PMID 18316551; details: mouse model of breast cancer ref 9,10,24; cited from earlier work

SMILES	clinical benefit (advanced solid tumors; alone or in combination with erlotinib or everolimus, phase I trials ref 11,12)	tolerability (advanced solid tumors; particularly when administered with erlotinib ref 11,12)	ability to survive and grow in anchorage independence (MDA-MB-231 cells)	breast cancer local relapse [1]
Cc1ccc(S(=O)(=O)O)cc1.Cn1cc(-c2ccc(F)c(C(F)(F)F)c2)nc1C1CCN(c2ncnc3[nH]ncc23)CC1 [LY2584702 tosylate]	very limited clinical benefit	low tolerability	–	–
CCc1cncnc1N1CCN(Cc2nc3ccc(C(F)(F)F)cc3[nH]2)CC1 [PF-4708671]	–	–	significantly decreased	strongly impaired
